These results are taken from patent publication US11912723B2, “KRAS modulators and uses thereof” (Quanta Therapeutics, Inc., priority 2022, dated 2024).

In assay [1] the target is T1, GST-tagged KRAS G12D (2-169) (Homo sapiens, UniProt P01116, G12D).
T1 construct: GST-tagged KRAS^G12D (2-169, Reaction Biology, MSC-11-539); purchased Reaction Biology MSC-11-539 (KRAS G12D); MSC-11-502 (SOS1cat)
Put plainly: Nucleotide exchange assay (NEA), HTRF of SOS-mediated GTP-DY-647P1 binding. The format is biochemical. The conditions noted are these: 5 nM GST-KRAS G12D, 20 nM SOScat, 150 nM GTP; compound 1 h at RT. The method in brief: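 SOS1cat (564-1049)-driven loading of GTP-DY-647P1 onto KRAS G12D, read by HTRF with anti-GST Tb cryptate donor; compound preincubated with KRAS 1 h at RT. Final 5 nM KRAS, 20 nM SOScat, 150 nM GTP, pH 7.3 HEPES buffer; read up to 90 min at RT. Blanked to no-SOS1; 4-parameter fit of % inhibition.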
In general terms: Time-resolved FRET reads energy transfer from a long-lived donor to a nearby acceptor.

Assay [2] concerns AGS (KRAS G12D) cells, phospho-ERK. Put plainly: pERK In Cell Western (ICW) assay (Method B). The class given is cell-based. The following applies: 3 hours. The procedure: pERK ICW is a high throughput screening assay to evaluate the cellular potency of mutant KRAS small molecule inhibitors. KRAS mutant cell line AGS (KRAS^G12D) were purchased from ATCC and maintained in DMEM and RPMI medium supplemented with 10% fetal bovine serum and Penicillin/Streptomycin.
Cells grown in exponential phase were trypsinized, resuspended in fresh media, and viable cells were counted using a cell counter with Trypan Blue (BioRad TC20). Cells were seeded into 384-well plate (Greiner 781091) at density of 5,000 cells/well for AGS and allowed to grow overnight in a 37° C. CO2 incubator. The next day, compounds were dispensed into wells with a ½ log, 10-point serial dilution and top concentration of 10 μM using Tecan D300e dispenser and incubated for 3 hours in a 37° C. CO2 incubator. Cells were then fixed with paraformaldehyde (Electron Microscopy Sciences, 15710, 4% final concentration) for 30 min, permeabilized with wash buffer (1×PBS+0.1% Triton X-100) for 30 min and blocked with Odyssey blocking buffer (Li—COR 927-70001) for 1 hour, all at room temperature (RT). Phospho-ERK antibody (CST 4370L) was diluted 1:500 in Odyssey blocking+0.2% Tween 20 and incubated with cells overnight at 4° C. The next day, plates were washed 5× with wash buffer, incubated with IRDye 800 CW, Goat anti-Rabbit secondary antibody (Li—COR 926-32211, 1:500) and DRAQ5 (CST 4084L, 1:5,000) diluted in Odyssey blocking+0.2% Tween 20 for 1 hour, washed 5×, and imaged on an Odyssey CLx imaging system.
For data analysis, signal intensities from 800 (phosphor-ERK) and 700 (DRAQ5) channels were extracted, and phospho-ERK signals were normalized to DRAQ5 signals for each well and percent of DMSO control values were computed. Data were then imported into Graphpad Prism to compute half-maximal inhibitory concentrations (IC50) using a 4-parameter variable slope model. Z-factor for each plate was computed from signals derived from wells treated with either DMSO or 5 μM of Trametinib. AGS pERK ICW (Method B) IC50 (uM) values of selected compounds are depicted in Table 2 with compounds having a value 0.001 uM to 0.01 uM as ++++; >0.01 uM to 0.1 uM as +++; >0.1 uM to 1 uM as ++; 1 uM to 10 uM as + and >10 uM as NA.

Where only a bound is given, the exact number is not on record here.

T1 sequence (P01116 2-169 isoform P01116-2 G12D): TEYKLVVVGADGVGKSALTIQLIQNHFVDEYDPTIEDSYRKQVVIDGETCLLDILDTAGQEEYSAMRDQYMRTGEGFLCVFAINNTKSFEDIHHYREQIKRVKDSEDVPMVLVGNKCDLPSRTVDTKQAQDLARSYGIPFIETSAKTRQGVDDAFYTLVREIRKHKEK

As a reminder, the IC50 is the concentration needed to halve the response being measured. As for `OC1CCCN(c2nc(OC[C@@]34CCCN3C[C@H](F)C4)nc3c2COC2(CCc4c(Cl)cccc42)C3)CC1` (mixture of isomers) [Compound 6, 1-[4′-chloro-2-[[rac-(2R,8S)-2-fluoro-1,2,3,5,6,7-hexahydropyrrolizin-8-yl]methoxy]spiro[5,8-dihydropyrano[4,3-d]pyrimidine-7,1′-indane]-4-yl]azepan-4-ol], the IC50 was 1 to 20 µM in assay [1] and > 10 µM in assay [2] (Homo sapiens).

In the case of `CN(C)C(=O)c1cc2n(n1)CCCN(c1nc(OC[C@@]34CCCN3C[C@H](F)C4)nc3c1COC1(CCCc4c(Cl)cc(O)cc41)C3)C2` (mixture of isomers) [Compound 43, 5-[5′-chloro-7′-hydroxy-2-[[rac-(2R,8S)-2-fluoro-1,2,3,5,6,7-hexahydropyrrolizin-8-yl]methoxy]spiro[5,8-dihydropyrano[4,3-d]pyrimidine-7,1′-tetralin]-4-yl]-N,N-dimethyl-4,6,7,8-tetrahydropyrazolo[1,5-a][1,4]diazepine-2-carboxamide], the IC50 lay within 0.01 to 0.1 µM in assay [1] and 1 to 10 µM in assay [2] (Homo sapiens).

For `C=C1CN2CCCC2(COc2nc3c(c(N4CCCn5nc(C(=O)N(C)C)c(Cl)c5C4)n2)CO[C@@]2(CCc4c(Cl)cccc42)C3)C1` (mixture of isomers) [Compound 54, 3-chloro-N,N-dimethyl-5-[rac-(7S)-4′-chloro-2-[(6-methylene-2,3,5,7-tetrahydro-1H-pyrrolizin-8-yl)methoxy]spiro[5,8-dihydropyrano[4,3-d]pyrimidine-7,1′-indane]-4-yl]-4,6,7,8-tetrahydropyrazolo[1,5-a][1,4]diazepine-2-carboxamide], the IC50 in assay [1] is < 0.01 µM; in assay [2] (Homo sapiens), 0.1 to 1 µM.

Regarding `Oc1ccc2c(c1)C1(CCC2)Cc2nc(OC[C@@]34CCCN3C[C@H](F)C4)nc(N3CCCCCC3)c2CO1` (single isomer, unassigned) [Compound 7], the IC50 in assay [1] was 1 to 20 µM; in assay [2] (Homo sapiens) it was > 10 µM.

Turning to `Oc1ccc2c(c1)C1(CCC2)Cc2nc(OC[C@@]34CCCN3C[C@H](F)C4)nc(N3CCCCCC3)c2CO1` (single isomer, unassigned) [Compound 8], the IC50 in assay [1] was 0.1 to 1 µM; in assay [2], > 10 µM.

Turning to `O=C1NC(=O)C2(CCCN(c3nc(OC[C@@]45CCCN4C[C@H](F)C5)nc4c3COC3(CCc5c(Cl)cccc53)C4)C2)N1` (single isomer, unassigned) [Compound 24A, (5*)-9-[(7*)-4′-chloro-2-[[(2R,8S)-2-fluoro-1,2,3,5,6,7-hexahydropyrrolizin-8-yl]methoxy]spiro[5,8-dihydropyrano[4,3-d]pyrimidine-7,1′-indane]-4-yl]-1,3,9-triazaspiro[4.5]decane-2,4-dione], the figures for the IC50 in assay [1] and in assay [2] (Homo sapiens) were 0.01 to 0.1 µM and 1 to 10 µM, respectively.

As to `F[C@H]1CN2CCC[C@@]2(COc2nc3c(c(N4CCCCCC4)n2)COC2(CCc4c(Cl)cccc42)C3)C1` (stereo partly drawn) [Compound 1, 4′-(azepan-1-yl)-4-chloro-2′-(((2R,7aS)-2-fluorotetrahydro-1H-pyrrolizin-7a(5H)-yl)methoxy)-2,3,5′,8′-tetrahydrospiro[indene-1,7′-pyrano[4,3-d]pyrimidine]], the IC50 in assay [1] was 1 to 20 µM; in assay [2] (Homo sapiens) it was > 10 µM.

In the case of `F[C@H]1CN2CCC[C@@]2(COc2nc3c(c(N4C[C@H]5CC[C@@H](C4)N5)n2)COC2(CCc4c(Cl)cccc42)C3)C1` (stereo partly drawn) [Compound 2, 4′-((1R,5S)-3,8-diazabicyclo[3.2.1]octan-3-yl)-4-chloro-2′-(((2R,7aS)-2-fluorotetrahydro-1H-pyrrolizin-7a(5H)-yl)methoxy)-2,3,5′,8′-tetrahydrospiro[indene-1,7′-pyrano[4,3-d]pyrimidine]], the IC50 in assay [1] was in the range of 0.01 to 0.1 µM; in assay [2] (Homo sapiens), 1 to 10 µM.

Regarding `OC1CCCN(c2nc(OC[C@@]34CCCN3C[C@H](F)C4)nc3c2COC2(CCCc4ccc(Br)cc42)C3)CC1` (stereo partly drawn) [Compound 4, 1-[7′-bromo-2-[[(2R,8S)-2-fluoro-1,2,3,5,6,7-hexahydropyrrolizin-8-yl]methoxy]spiro[5,8-dihydropyrano[4,3-d]pyrimidine-7,1′-tetralin]-4-yl]azepan-4-ol], the IC50 in assay [1] is 1 to 20 µM; in assay [2] (Homo sapiens), > 10 µM.

Regarding `F[C@H]1CN2CCC[C@@]2(COc2nc3c(c(N4CCCCCC4)n2)COC2(CCCc4c(Br)cccc42)C3)C1` (stereo partly drawn) [Compound 5, 4-(azepan-1-yl)-5′-bromo-2-[[(2R,8S)-2-fluoro-1,2,3,5,6,7-hexahydropyrrolizin-8-yl]methoxy]spiro[5,8-dihydropyrano[4,3-d]pyrimidine-7,1′-tetralin]], the IC50 in assay [1] is 1 to 20 µM; in assay [2] (Homo sapiens), > 10 µM.

For `F[C@H]1CN2CCC[C@@]2(COc2nc3c(c(N4C[C@H]5CC[C@@H](C4)N5)n2)COC2(CCCc4c(Br)cccc42)C3)C1` (stereo partly drawn) [Compound 10, 5′-bromo-4-(3,8-diazabicyclo[3.2.1]octan-3-yl)-2-[[(2R,8S)-2-fluoro-1,2,3,5,6,7-hexahydropyrrolizin-8-yl]methoxy]spiro[5,8-dihydropyrano[4,3-d]pyrimidine-7,1′-tetralin]], the figures for the IC50 in assay [1] and in assay [2] (Homo sapiens) were 0.01 to 0.1 µM and > 10 µM, respectively.

On to `Oc1ccc2c(c1)C1(CCC2)Cc2nc(OC[C@@]34CCCN3C[C@H](F)C4)nc(N3CCCC(O)CC3)c2CO1` (stereo partly drawn) [Compound 14, 2-[[(2S,8R)-2-fluoro-1,2,3,5,6,7-hexahydropyrrolizin-8-yl]methoxy]-4-(4-hydroxyazepan-1-yl)spiro[5,8-dihydropyrano[4,3-d]pyrimidine-7,4′-tetralin]-6′-ol], for which the results for the IC50 in assay [1] and in assay [2] (Homo sapiens) were 1 to 20 µM and > 10 µM, respectively.

In the case of `OC1CCCN(c2nc(OC[C@@]34CCCN3C[C@H](F)C4)nc3c2COC2(CCCc4c(Cl)cccc42)C3)CC1` (stereo partly drawn) [Compound 15, 1-[5′-chloro-2-[[(2R,8S)-2-fluoro-1,2,3,5,6,7-hexahydropyrrolizin-8-yl]methoxy]spiro[5,8-dihydropyrano[4,3-d]pyrimidine-7,1′-tetralin]-4-yl]azepan-4-ol], the values for the 50% inhibitory concentration (IC50) in assay [1] and in assay [2] (Homo sapiens) were 1 to 20 µM and > 10 µM, respectively.

Take `N#CC1CCCN(c2nc(OC[C@@]34CCCN3C[C@H](F)C4)nc3c2COC2(CCc4c(Cl)cccc42)C3)CC1` (stereo partly drawn) [Compound 16, 1-(4-chloro-2′-(((2R,7aS)-2-fluorotetrahydro-1H-pyrrolizin-7a(5H)-yl)methoxy)-2,3,5′,8′-tetrahydrospiro[indene-1,7′-pyrano[4,3-d]pyrimidin]-4′-yl)azepane-4-carbonitrile]: the figures for the IC50 in assay [1] and in assay [2] (Homo sapiens) were 1 to 20 µM and > 10 µM, respectively.

In the case of `OC1CCCN(c2nc(OC[C@@]34CCCN3C[C@H](F)C4)nc3c2COC2(CCCc4ccc(Cl)cc42)C3)CC1` (stereo partly drawn) [Compound 17, 1-(7-chloro-2′-(((2R,7aS)-2-fluorotetrahydro-1H-pyrrolizin-7a(5H)-yl)methoxy)-3,4,5′,8′-tetrahydro-2H-spiro[naphthalene-1,7′-pyrano[4,3-d]pyrimidin]-4′-yl)azepan-4-ol], the IC50 is 1 to 20 µM in assay [1] and 1 to 10 µM in assay [2] (Homo sapiens).

For `F[C@H]1CN2CCC[C@@]2(COc2nc3c(c(N4CCC=CCC4)n2)COC2(CCc4c(Cl)cccc42)C3)C1` (stereo partly drawn) [Compound 18, 4′-chloro-2-[[(2R,8S)-2-fluoro-1,2,3,5,6,7-hexahydropyrrolizin-8-yl]methoxy]-4-(2,3,6,7-tetrahydroazepin-1-yl)spiro[5,8-dihydropyrano[4,3-d]pyrimidine-7,1′-indane]], the IC50 in assay [1] is > 20 µM; in assay [2] (Homo sapiens), > 10 µM.

In the case of `CN(C)C(=O)c1cc2n(n1)CCCN(c1nc(OC[C@@]34CCCN3C[C@H](F)C4)nc3c1CO[C@]1(CCc4c(Cl)cccc41)C3)C2` [Compound 27B, 5-[(7R)-4′-chloro-2-[[(2R,8S)-2-fluoro-1,2,3,5,6,7-hexahydropyrrolizin-8-yl]methoxy]spiro[5,8-dihydropyrano[4,3-d]pyrimidine-7,1′-indane]-4-yl]-N,N-dimethyl-4,6,7,8-tetrahydropyrazolo[1,5-a][1,4]diazepine-2-carboxamide], the IC50 in assay [1] was < 0.01 µM; in assay [2] it was 0.1 to 1 µM.
